Results on two compounds are retold here after patent publication US6525043B2, “Use of ion channel modulating agents” (NeuroSearch A/S, priority 1999, dated 2003).

SMILES strings stand for the structures.

This assay concerns the target T1, Intermediate-conductance Ca2+-activated K+ channels (IK channels) (Homo sapiens, UniProt O15554).
T1 construct: expressed in transfected cells
In words: Whole-cell patch-clamp recording of ionic current through IK channels stably expressed in HEK293 cells. The assay is classed as cell-based. The following applies: hIK in HEK293 cells, voltage-ramps -100 to +100 mV, free Ca2+ 100 nM, room temperature. The method, then: In this experiment the ionic current through Intermediate-conductance Ca^2+-activated K^+channels (IK channels) is recorded in the whole-cell mode of the patch-clamp technique.
Intermediate-conductance Ca^2+-activated K^+ channels (IK channels) have been cloned from human placenta and stably expressed in HEK293 cells.
Human IK (hIK) was excised from pT3T7 (GenBank Acc. No. N56819) using EcoR I and Not I and sub-cloned into the mammalian expression vector pNS1Z (NeuroSearch), a custom designed derivative of pcDNA3Zeo (InVitrogen) to give the plasmid construct pNS1Z13 hIK. HEK293 tissue culture cells were grown in DMEM (Dulbecco's Modified Eagle Medium) supplemented with 10% FCS (foetal calf serum) at 37° C. in 5% CO2. […]
Experiments are carried out on one of several patch-clamp set-ups. […] Data are stored directly on the hard-disk and analysed by the IGOR software (Wavemetrics, Lake Oswega, Oreg., USA).
The whole-cell configuration of the patch clamp technique is applied. […] Cell capacitance is electronically compensated and the resistance between the pipette and the cell interior (the series resistance, Rs) is measured and compensated for. […]
The intracellular (pipette) solution has the following composition (conc. in mM): 144 KCl, 10 EGTA, 1.4 MgCl2, 5.17 CaCl2, and 10 HEPES (pH=7.2). The calculated free concentration of Ca^2+ in this solution is 100 nM and that of Mg^2+ is 1 mM. […]
For orientation: The patch-clamp technique gives a direct electrical read-out from membranes.

In the case of `c1ccc2c(c1)[nH]c1ccccc12` [Carbazole, carbazole], the “SC100 (Stimulating Concentration required to induce a 100% increase (doubling) in the basal current)” value turned out to be 0.2 µM. For `ON=C1c2ccccc2-c2ccccc21` [9H-9-fluorenone-oxime], the “SC100 (Stimulating Concentration required to induce a 100% increase (doubling) in the basal current)” value came out at 0.08 µM.
